Data published in patent publication US7786175B2, “Anti-atherosclerosis composition containing carotenoids and method for inhibiting LDL oxidation” (Lycored Natural Products, priority 2001, dated 2010).

What was measured:
LDL [1] = test: Copper ion-induced LDL oxidation, TBARS assay; type: biochemical; details: for effect on LDL oxidation (TBARS), in words: single compounds at low concentration mimicking Lyc-O-Mato: lycopene 10 μg/ml, vitamin E 2.5 μg/ml, β-carotene 0.4 μg/ml
Protocol: (§1) All studied compounds were dissolved in THF to a stock solution of 1 mg/ml. LDL was dialyzed for 24 hours against phosphate buffered-saline (PBS) prior to its oxidation to remove any EDTA that can interfere with the oxidation. LDL (100 μg protein/ml), was incubated in the absence (Control) or presence of increasing concentrations of each one of the studied compounds, as well as, in various combinations including 2, 3 or the 4 constituents at the desired natural distribution. LDL oxidation was induced by the addition of 5 μM of CuSO4, for 2 hours at 37° C. LDL oxidation was terminated by adding 1 mM Na2 EDTA and immediate refrigeration at 4° C. The extent of LDL oxidation was then determined by measuring the amount of thiobarbituric acid reactive substances (TBARS) and of lipid peroxides (PD) formed. Control LDL was supplemented with only THF.
(§2) LDL (100 μg of protein/mL) was pre-incubated for 30 minutes at 37° C. with increasing concentrations of crystalline pure lycopene, or with tomato oleoresin (at equivalent lycopene concentrations), followed by a further incubation for 2 hours at 37° C. in the presence of 5 μmol/L of CuSO4. LDL oxidation was measured by the TBARS (A) or by the lipid peroxides (B) assays respectively. Results are given as mean±SD (n=3). Addition of increasing concentrations of lycopene inhibited copper ion-induced LDL oxidation moderately, in a dose-dependent manner.

LDL [2] = test: Copper ion-induced LDL oxidation, lipid peroxides assay; type: biochemical; details: for effect on LDL oxidation (lipid peroxides), in words: single compounds at low concentration mimicking Lyc-O-Mato: lycopene 10 μg/ml, vitamin E 2.5 μg/ml, β-carotene 0.4 μg/ml
Protocol: as §1, §2

[3] = 50 μmol/L of lycopene, LDL 100 μg of protein/mL, 5 μmol/L CuSO4, 2 hours at 37° C.

With vitamin E the “effect on LDL oxidation (TBARS), in words” value (“effect … (TBARS), in words” for short) (LDL [1]) was “did not significantly affect LDL oxidation” and the “effect on LDL oxidation (lipid peroxides), in words” value (LDL [2]) was “did not significantly affect LDL oxidation”.
In the case of `CC(C)=CCC/C(C)=C/C=C/C(C)=C/C=C/C(C)=C/C=C/C=C(C)/C=C/C=C(C)/C=C/C=C(\C)CCC=C(C)C` [lycopene], the “maximal inhibition in TBARS formation” value (LDL [1]; [3]) was 22%, the “effect … (TBARS), in words” value (LDL [1]) was “did not significantly affect LDL oxidation” and the “maximal inhibition in lipid peroxides formation” value (LDL [2]; [3]) was 27%. The “effect on LDL oxidation (lipid peroxides), in words” value (LDL [2]) was “did not significantly affect LDL oxidation”.
For `CC1=C(/C=C/C(C)=C/C=C/C(C)=C/C=C/C=C(C)/C=C/C=C(C)/C=C/C2=C(C)CCCC2(C)C)C(C)(C)CCC1` [β-carotene], the “effect on LDL oxidation, in words” value (LDL [1]; Example 5: β-carotene alone or in combination with vitamin E) was “did not affect at all LDL oxidation”, the “effect … (TBARS), in words” value (LDL [1]) was “did not significantly affect LDL oxidation” and the “effect on LDL oxidation (lipid peroxides), in words” value (LDL [2]) was “did not significantly affect LDL oxidation”.
